Measurements published in US10842765B2, “Methods of reducing or preventing oxidation of small dense ldl or membrane polyunsaturated fatty acids” (Amarin Pharmaceuticals Ireland Limited, priority 2016, dated 2020).

Columns and labels:
human LDL = experiment: Copper-induced unfractionated LDL oxidation, TBARS, Example 7; format: biochemical; conditions: each agent 10.0 μM; 1 hour
[1] = system: small dense LDL (sdLDL) isolated from human subjects; experiment: Glucose-induced sdLDL oxidation (MDA/TBARS), Example 10; format: biochemical; conditions: 10 μM; glucose 200 mg/dL; 1 hr
Method: Vitamin E (α-tocopherol) purchased from Sigma-Aldrich was prepared in ethanol at 1.0 mM (ε=3.06×10^4 M^−1 cm^−1 at 294 nm) prior to experimental use. Test compounds were further diluted in ethanol or aqueous buffer as needed. Phosphate Buffered Saline (PBS) purchased from Sigma-Aldrich was prepared in double distilled water at 10 mM (138 mM NaCl, 2.7 mM KC, pH 7.4). Glucose prepared in PBS was added to test samples to achieve a final concentration of 11.0 mM (200 mg/dL).
LDL and sdLDL were isolated from the plasma of healthy volunteers by iodixanol density gradient ultracentrifugation and adjusted to a final apolipoprotein concentration of 10 mg/mL. […] Sample aliquots were incubated at 100° C. for 30 minutes and then assayed for the formation of thiobarbituric acid-reactive substances (TBARS), having a molar absorptivity (ε) value of 1.56×10^5 M^−1 cm^−1 at 532 nm and were derived principally from the reaction of thiobarbituric acid with malondialdehyde (MDA). Lipid oxidation was measured by the colorimetric detection of malondialdehyde (MDA), a marker of oxidative stress.
Data were presented as mean±SD for (n) separate samples or experiments. Differences between groups were analyzed using the unpaired, two-tailed Student's t-test (for comparisons between only two groups) or ANOVA followed by Student-Newman-Keuls multiple comparisons post hoc analysis (for comparisons between three or more groups). Only differences with probability values less than 0.05 were considered significant.

human sdLDL [2] = experiment: Copper-induced sdLDL oxidation, TBARS, Example 7; format: biochemical; conditions: each agent 10 μM; 1 hr
Method: Samples were prepared at 100 μg/mL sdLDL and incubated with EPA or DHA (10.0 μM each) for 30 minutes prior to initiating lipid oxidation using 10 μM CuSO4. Samples were maintained at 37° C. in a shaking water bath for 1 hour. Lipid oxidation was measured by colorimetric assay of TBARS formation and expressed as molar equivalents of MDA.
An experiment to study the antioxidant effect of EPA in LDL and small dense LDL (“sdLDL”) was performed. LDL and sdLDL were isolated from the plasma of healthy volunteers by iodixanol density gradient ultracentrifugation, and adjusted to a final apolipoprotein concentration of 2 mg/mL. […] Lipid oxidation was initiated with 10 μM CuSO4 and monitored by the colorimetric detection of thiobarbituric acid reactive substances (TBARS) for 1 hr. Vitamin E was also incubated with sample aliquots as a positive control.

HMG-CoA reductase = target: T1, HMG-CoA reductase (Homo sapiens, UniProt P04035); conditions: primary pharmacokinetic studies; hepatic cytochrome P450 metabolism; cited from earlier work
T1 sequence (P04035 1-888): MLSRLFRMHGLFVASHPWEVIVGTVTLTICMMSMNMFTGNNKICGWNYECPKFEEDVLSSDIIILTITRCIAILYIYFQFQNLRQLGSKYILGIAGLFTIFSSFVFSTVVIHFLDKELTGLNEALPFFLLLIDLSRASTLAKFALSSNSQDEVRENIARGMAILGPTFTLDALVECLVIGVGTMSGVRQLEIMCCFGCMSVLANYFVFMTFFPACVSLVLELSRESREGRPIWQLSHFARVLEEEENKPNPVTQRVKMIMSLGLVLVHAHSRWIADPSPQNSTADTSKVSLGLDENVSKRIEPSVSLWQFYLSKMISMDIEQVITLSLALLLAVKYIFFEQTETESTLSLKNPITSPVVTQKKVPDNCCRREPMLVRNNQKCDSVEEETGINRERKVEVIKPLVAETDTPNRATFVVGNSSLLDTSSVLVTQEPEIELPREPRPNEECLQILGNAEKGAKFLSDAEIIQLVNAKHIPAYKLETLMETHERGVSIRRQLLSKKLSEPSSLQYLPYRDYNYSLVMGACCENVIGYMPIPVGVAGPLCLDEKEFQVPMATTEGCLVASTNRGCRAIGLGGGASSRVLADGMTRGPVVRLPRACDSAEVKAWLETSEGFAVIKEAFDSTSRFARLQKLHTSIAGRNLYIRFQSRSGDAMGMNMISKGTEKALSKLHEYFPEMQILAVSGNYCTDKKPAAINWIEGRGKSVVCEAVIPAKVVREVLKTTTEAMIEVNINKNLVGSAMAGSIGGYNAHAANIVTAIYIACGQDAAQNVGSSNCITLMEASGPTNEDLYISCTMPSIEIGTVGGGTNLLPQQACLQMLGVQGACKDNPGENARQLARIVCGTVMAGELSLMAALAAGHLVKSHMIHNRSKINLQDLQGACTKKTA

[3] = Glucose-induced membrane lipid peroxidation (LOOH) in lipid vesicles, Example 4; format: biochemical; conditions: 72- and 96-hour time points; 1:30 drug-to-phospholipid mole ratio; glucose
Method: An experiment was conducted to test the ability of EPA to interfere with the effects of high glucose on membrane lipid peroxidation and organization in vesicles enriched with PUFAs. […] Vitamin E (α-tocopherol) was also purchased from Sigma-Aldrich and prepared in ethanol at 1.0 mM (ε=3.06×10^4 M^−1 cm^−1 at 294 nm) just prior to experimental use. […] All test compounds were further diluted in ethanol or aqueous buffer as needed. Glucose was prepared in saline buffer (0.5 mM HEPES, 154 mM NaCl, pH 7.3) at 11.0 mM (200 mg/dL). CHOD-iodide color reagent (stock) was prepared, with slight modification, as described by from El-Saadani et al. (J. […] Samples were shell-dried under nitrogen gas and placed under vacuum for 1 h to remove residual solvent. […] Lipid suspensions were then vortexed for 3 min at ambient temperature to form MLVs. All MLV samples were subjected to time-dependent autoxidation by incubating at 37° C. in an uncovered, shaking water bath. This method allows lipid peroxidation to occur gradually without requiring the use of exogenous initiators. Small aliquots (5-100 μL) of each sample were removed, immediately following MLV preparation (0 hour) and after exposing samples to oxidative conditions for 72 or 96 hour, and combined with 1.0 mL of activated CHOD-iodide color reagent. Aliquot volume was reduced with each successive time point to ensure that spectrophotometric readings were within the optimal adsorption range. Test samples were covered and incubated in darkness at room temperature for at least 4 hr. Sample absorbances were then measured against a CHOD blank at 365 nm using a Beckman DU-640 spectrophotometer. The CHOD colorimetric assay is based on the oxidation of iodide (I^−) by lipid hydroperoxide (LOOH) to form triiodide (I3^−), the quantity of which is directly proportional to the amount of LOOH present in the lipid sample. The molar absorptivity (I3^−) of I3^− is 2.46×10^4 M^−1 cm^−1 at 365 nm. […]

human sdLDL [4] = experiment: Copper-induced sdLDL oxidation, TBARS after 2 hr, Example 6; format: biochemical; conditions: 1.0 μM to 10.0 μM
Method: An experiment to study the antioxidant effect of EPA in small dense […] performed. […] Vitamin E (α-tocopherol) was purchased from Sigma-Aldrich and prepared in ethanol at 1.0 mM (ε=3.06×10^4 M^-1 cm^-1 at 294 nm) just prior to experimental use. All test compounds were further diluted in ethanol or aqueous buffer as needed. Venous blood was collected from healthy volunteers into vacutainer tubes containing sodium EDTA. Plasma was separated by centrifugation at 3000 g for 25 min at 4° C. and adjusted to a density of 1.020 g/mL with KBr. Triglyceride-rich lipoproteins (TGRL) and LDL fractions were then isolated bysequential centrifugation at 70,000 rpm at 4° C. in a Beckman LE-80 ultracentrifuge using a Beckman 50.4Ti rotor (Beckman Coulter, Inc., Fullerton, Calif.). The TGRL fraction (with a relative density of <1.020) was aspirated from the top of the centrifugate and discarded, leaving an LDL-enriched […] relative density of 1.020 to 1.063). […] The sdLDL subfraction was retained for additional experimentation. Plasma and lipoprotein fractions were maintained at 4° C. and protected from excessive exposure to light. […] Differences between groups were analyzed using the two-tailed, Student's t-test (for comparisons between only two groups) or ANOVA followed by Dunnett or Student-Newman-Keuls multiple comparisons post-hoc analysis (for comparisons between three or more groups).

unfractionated LDL = experiment: Copper-induced unfractionated LDL oxidation, TBARS, Example 6; format: biochemical, human; conditions: 1.0 μM to 10.0 μM; data not shown
Method: All test compounds were further diluted in ethanol or aqueous buffer as needed. Venous blood was collected from healthy volunteers into vacutainer tubes containing sodium EDTA. […] Plasma and lipoprotein fractions were maintained at 4° C. and protected from excessive exposure to light. Prior to oxidation experiments, EDTA was removed from the lipoprotein fraction using PD-10 desalting columns (GE Healthcare, Piscataway N.J.). After equilibration of the column with phosphate buffered saline (PBS), 2.5 mL of the lipoprotein fraction was loaded on the column and the flow-through discarded. The lipoprotein was then eluted with 3 mL of PBS. The LDL fractions were further diluted with PBS to obtain a 100 μg/mL apoB100 concentration. […] Differences between groups were analyzed using the two-tailed, Student's t-test (for comparisons between only two groups) or ANOVA followed by Dunnett or Student-Newman-Keuls multiple comparisons post-hoc analysis (for comparisons between three or more groups).

| Structure (SMILES) | effect on unfractionated LDL oxidation (human LDL) | inhibition of glucose-induced sdLDL oxidation (in words) [1] | inhibition of sdLDL oxidation (TBARS formation) vs vehicle (human sdLDL [2]) | share of circulating HMG-CoA reductase inhibitory activity accounted for by active metabolites (HMG-CoA reductase) | effect on LOOH formation / lipid peroxidation [3] | inhibition of sdLDL oxidation (human sdLDL [4]) | increase of sdLDL oxidation as compared to glucose-treated controls [1] | inhibition of LDL oxidation (unfractionated LDL) |
| --- | --- | --- | --- | --- | --- | --- | --- | --- |
| Cc1ccc(C)c(OCCCC(C)(C)C(=O)O)c1 [Gemfibrozil, gemfibrozil] | no significant effect on unfractionated LDL oxidation | did not inhibit glucose-induced sdLDL oxidation | – | – | – | – | – | – |
| O=C(O)c1cccnc1 [Niacin, nicotinic acid] | no significant effect on unfractionated LDL oxidation | did not inhibit glucose-induced sdLDL oxidation | – | – | – | – | – | – |
| CC(C)c1c(C(=O)Nc2ccccc2)c(-c2ccccc2)c(-c2ccc(F)cc2)n1CC[C@@H](O)C[C@@H](O)CC(=O)O [atorvastatin] | did not have any significant antioxidant activity | – | 0.1±7% | approximately 70% | – | – | – | – |
| Cc1c(C)c2c(c(C)c1O)CC[C@@](C)(CCC[C@H](C)CCC[C@H](C)CCCC(C)C)O2 [vitamin E, α-tocopherol] | no significant effect on unfractionated LDL oxidation | failed to inhibit sdLDL oxidation | – | – | no significant effect on lipid peroxidation | did not inhibit sdLDL oxidation except at the highest concentration | 63% | did not inhibit LDL oxidation at any concentration |
